Data: PMC11091889, “Silver Organometallics that are Highly Potent Thioredoxin and Glutathione Reductase Inhibitors: Exploring the Correlations of Solution Chemistry with the Strong Antibacterial Effects” (ACS Infectious Diseases, 2024)

Assays:
[1] = Conductometry: molar conductivity of silver complexes in DMSO; assay type: physicochemical; details: 1.0 mM in DMSO, calculated as monocarbene (NHC)AgX
How it was run: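 Molar conductivity of each silver complex was measured at 1.0 mM in freshly distilled DMSO (specific conductivity ≤3 × 10^–8 S cm^–1) using an Apera Instruments EC9500 conductivity meter at 25 ± 2 °C. AgNO3 served as the 1:1 electrolyte reference, and readings were taken after dissolution to distinguish neutral monocarbene from ionic biscarbene forms.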

[2] = system: E. coli (DSM1116, ATCC 9637); assay: microbe, parasite or virus in culture; assay type: cell-based, Escherichia coli; details: for MIC E. coli DSM 1116 in MHB + tryptone: Müller-Hinton Broth with tryptone (17 g/L); for MIC E. coli DSM 1116 in MHB + tryptone / MIC E. coli DSM 1116 in MHB + yeast extract / MIC E. coli DSM 1116 in MHB: ± SE; for MIC E. coli DSM 1116 in MHB + yeast extract: Müller-Hinton Broth with yeast extract (3 g/L); for MIC E. coli DSM 1116 in MHB: Müller-Hinton Broth without additive; for EC50 / MIC E. coli: mean ± standard error; for EC50 / MIC E. coli / MIC E. coli (value in brackets): n = 3, MHB; for MIC E. coli / MIC E. coli (value in brackets): 22 h
How it was run: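 Escherichia coli DSM1116 (ATCC 9637) was tested by broth microdilution in 96-well plates in duplicate, with compounds serially diluted from 64 to 1 μg/mL. Inocula of 2–8 × 10^5 CFU/mL were used in MHB (21 g/L Müller Hinton broth, pH 7.4), either alone or supplemented with tryptone (17 g/L) or yeast extract (3 g/L). After 22 h at 37 °C, absorbance at 600 nm was read. MIC and EC50 were obtained by curve fitting in Sigma Plot from three independent experiments, and ciprofloxacin served as the positive control.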

[3] = system: K. pneumoniae (DSM 11678, ATCC33495); assay: Broth microdilution antibacterial assay; assay type: cell-based, Klebsiella pneumoniae; details: n = 3, MHB; for MIC K. pneumoniae / EC50: mean ± standard error; for MIC K. pneumoniae / MIC K. pneumoniae (value in brackets): 22 h; for EC50: read-out: EC50 K. pneumoniae
How it was run: (§1)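 Broth microdilution used 2–8 × 10^5 CFU/mL inocula, with compounds serially diluted 64 to 1 μg/mL and incubated 22 h at 37 °C, read at 600 nm. A. baumannii, K. pneumoniae and P. aeruginosa were grown in MHB pH 7.4; E. faecium was grown in TSY pH 7.0–7.2. MIC and EC50 were obtained by curve fitting from three independent experiments.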

[4] = system: A. baumannii (DSM 30007, ATCC 19606); assay: Broth microdilution antibacterial assay; assay type: cell-based, Acinetobacter baumannii; details: n = 3, MHB; for MIC A. baumannii / EC50: mean ± standard error; for MIC A. baumannii / MIC A. baumannii (value in brackets): 22 h; for EC50: read-out: EC50 A. baumannii
How it was run: as §1

[5] = system: P. aeruginosa (PA 14) biofilm; assay: Inhibition of biofilm formation, crystal violet staining; assay type: cell-based, Pseudomonas aeruginosa; details: for smallest active concentration for biofilm inhibition: concentration at which the % inhibition was found; for biofilm inhibition: ± SD, n = 4, at the respective smallest active concentration, 24 h
Text: Silver and its complexes can strongly affect the growth of biofilms.[56]−[58] In view of the promising activity against Gram-negative bacteria as mentioned above, we evaluated the inhibiting effect of the silver complexes on biofilm production by P. aeruginosa by a method based on crystal violet staining (Table 4 and Figure S14). Complexes 3a–c and 4a–c were selected for the test based on the results of solubility, stability, and antibacterial screening. […] The lower activity of 3c might be explained by its lower kinetic solubility in the aqueous environment (see Figure 4).
The antibiofilm activity was determined according to a literature method.[73] A 1 mL aliquot of P. aeruginosa (PA 14) was taken from −20 °C stock, incubated in 25 mL LB medium (Luria–Bertani Broth) in a 250 mL flask, and kept at 37 °C at 100 rpm overnight. The optical density at 600 nm (OD600) of the culture solution was adjusted to match the turbidity of a 0.1 McFarland standard in M63 medium.[74] Selected compounds were mixed with 150 μL of bacterial solution in U-bottom 96 well plates to the final respective concentrations (25–0.2 μg/mL). The plates were further incubated at 37 °C for 24 h while shaking at 150 rpm. Afterward, the plates were rinsed once with 150 μL of PBS buffer, and the biofilms were stained using 150 μL of crystal violet (0.1%) staining at room temperature for 15 min and then rinsed once with PBS buffer. After rinsing, 150 μL of ethanol (95%) was added, and the absorbance was quantified using a plate reader (Synergy 2, BioTek, Santa Clara, USA) at 550 nm. The resulting antibiofilm activity is presented as percentage of inhibition at the respective smallest active concentration in μM with standard deviation (SD) of two repeats with duplicates. Myxovalargin A and DMSO (2.5%) were used as the positive and negative controls, respectively.

[6] = target: E. coli thioredoxin reductase (TrxR) (Escherichia coli, UniProt P0A9P4); details: read-out: IC50 TrxR from E. coli; ± standard deviation, n = 3, 75 min preincubation
Chain of E. coli thioredoxin reductase (TrxR) (P0A9P4 whole entry): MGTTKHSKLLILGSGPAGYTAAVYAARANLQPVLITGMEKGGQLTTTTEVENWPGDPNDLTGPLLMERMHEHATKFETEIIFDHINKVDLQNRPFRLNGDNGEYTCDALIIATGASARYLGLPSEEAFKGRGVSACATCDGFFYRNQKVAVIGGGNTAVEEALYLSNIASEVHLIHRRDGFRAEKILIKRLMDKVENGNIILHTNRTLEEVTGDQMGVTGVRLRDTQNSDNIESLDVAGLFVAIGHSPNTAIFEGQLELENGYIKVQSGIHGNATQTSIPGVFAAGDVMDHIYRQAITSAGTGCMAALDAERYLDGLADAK
Method: The inhibition of purified E. coli thioredoxin reductase (TrxR) and glutathione reductase (GR) from both E. coli and baker’s yeast was determined according to a previously applied procedure.[59],[60]
The TrxR (E. coli) and GR (baker’s yeast and E. coli) inhibition assays were performed according to previously published procedures.[62],[75] The assays are partly based on the procedure developed by Lu et al.[60] and make use of the reduction of 5,5′-dithiobis(2-nitrobenzoic acid) (DTNB). Solutions of E. coli TrxR (35.4 U/mL) and E. coli thioredoxin (Trx) (156 μg/mL) (both purchased from Sigma-Aldrich) or baker’s yeast GR (0,08 U/mL, Sigma-Aldrich) or E. coli GR (4.2 U/ml, Antibodies online) and GSSG (0.28 mM, Sigma-Aldrich) in distilled water were prepared, as were fresh 2 mM stock solutions of the test compounds in DMSO. Then, solutions with several concentrations of the test compounds in DMSO were prepared, and 35 μL of each solution was diluted with 965 μL of TE buffer (Tris–HCl 50 mM, EDTA 1 mM, pH 7.5). These solutions (20 μL) or TE buffer without the test compounds (20 μL, as control) were mixed with the TrxR or GR solutions (10 μL), the Trx or GSSG solutions (10 μL), and a solution of NADPH (200 μM) in TE buffer (100 μL) in a well on a 96-well plate. As a blank solution, 200 μM NADPH in TE buffer (100 μL) mixed with a DMSO/buffer mixture (40 μL) was used (final concentrations of DMSO: 0.5% v/v). The plate was incubated for 75 min at 25 °C with moderate shaking. After incubation, 100 μL of a reaction mixture (TE buffer containing 200 μM NADPH and 5 mM DTNB) was added to each well to initiate the reaction. After thorough mixing, the formation of 5-TNB was monitored by a microplate reader at 405 nm in 35 s intervals (10 measurements). The values were corrected by subtraction of the blank solution absorption values. The increase in the concentration of 5-TNB followed a linear trend (r^2 ≥ 0.990), and the enzymatic activities were calculated as the gradients (increase in absorbance per second) thereof. […] The inhibition is presented as the mean IC50 values and standard deviations obtained in three independent experiments.

CC(C)n1[c](=[Ag][Cl])n(Cc2ccccn2)c2ccccc21 [3a, Chlorido (1-Isopropyl-3-(pyridin-2-ylmethyl)-benzimidazol-2-ylidene) Silver(I)]
Molar conductivity ΛM ([1]; 1 h after dissolution): 3.34 S cm^2 mol^–^1
Molar conductivity ΛM ([1]; 24 h after dissolution): 2.91 S cm^2 mol^–^1
MIC E. coli DSM 1116 in MHB + tryptone [2]: 162.2 ± 0.0 µM
MIC E. coli DSM 1116 in MHB + yeast extract [2]: 162.2 ± 0.0 µM
MIC E. coli DSM 1116 in MHB [2]: 40.5 ± 0.0 µM
EC50 [2]: 35300 ± 1100 nM
MIC E. coli [2]: 40.5 ± 0.0 µM
MIC E. coli (value in brackets) [2]: 16 µg/mL
MIC K. pneumoniae [3]: 13.5 ± 3.4 µM
EC50 [3]: 9800 ± 2400 nM
MIC K. pneumoniae (value in brackets) [3]: 5 µg/mL
MIC A. baumannii [4]: 13.5 ± 3.4 µM
EC50 [4]: 1800 ± 300 nM
MIC A. baumannii (value in brackets) [4]: 5 µg/mL
smallest active concentration for biofilm inhibition [5]: 7.9 µM
biofilm inhibition [5]: 71 ± 4%
IC50 [6]: 103 ± 8 nM

CC(C)n1[c](=[Ag][I])n(Cc2ccccn2)c2ccccc21 [3c, Iodido (1-Isopropyl-3-(pyridin-2-ylmethyl)-benzimidazol-2-ylidene) Silver(I)]
Molar conductivity ΛM ([1]; 1 h after dissolution): 8.15 S cm^2 mol^–^1
Molar conductivity ΛM ([1]; 24 h after dissolution): 7.62 S cm^2 mol^–^1
MIC E. coli DSM 1116 in MHB + tryptone [2]: 54.9 ± 11.0 µM
MIC E. coli DSM 1116 in MHB + yeast extract [2]: 43.9 ± 11.0 µM
MIC E. coli DSM 1116 in MHB [2]: 11.0 ± 2.7 µM
EC50 [2]: 8800 ± 2500 nM
MIC E. coli [2]: 11.0 ± 2.7 µM
MIC E. coli (value in brackets) [2]: 5 µg/mL
MIC K. pneumoniae [3]: 4.11 ± 0.0 µM
EC50 [3]: 2300 ± 300 nM
MIC K. pneumoniae (value in brackets) [3]: 2 µg/mL
MIC A. baumannii [4]: 4.11 ± 0.0 µM
EC50 [4]: 1900 ± 100 nM
MIC A. baumannii (value in brackets) [4]: 2 µg/mL
smallest active concentration for biofilm inhibition [5]: 13.0 µM
biofilm inhibition [5]: 55 ± 19%
IC50 [6]: 122 ± 15 nM

CC(C)n1[c](=[Ag][Br])n(Cc2ccccn2)c2ccccc21 [3b, Bromido (1-Isopropyl-3-(pyridin-2-ylmethyl)-benzimidazol-2-ylidene) Silver(I)]
Molar conductivity ΛM ([1]; 1 h after dissolution): 5.25 S cm^2 mol^–^1
Molar conductivity ΛM ([1]; 24 h after dissolution): 4.71 S cm^2 mol^–^1
MIC E. coli DSM 1116 in MHB + tryptone [2]: 145.7 ± 0.0 µM
MIC E. coli DSM 1116 in MHB + yeast extract [2]: 121.5 ± 24.3 µM
MIC E. coli DSM 1116 in MHB [2]: 36.4 ± 0.0 µM
EC50 [2]: 28700 ± 3600 nM
MIC E. coli [2]: 36.4 ± 0.0 µM
MIC E. coli (value in brackets) [2]: 16 µg/mL
MIC K. pneumoniae [3]: 18.2 ± 0.0 µM
EC50 [3]: 8600 ± 200 nM
MIC K. pneumoniae (value in brackets) [3]: 8 µg/mL
MIC A. baumannii [4]: 15.2 ± 3.0 µM
EC50 [4]: 530 ± 140 nM
MIC A. baumannii (value in brackets) [4]: 7 µg/mL
smallest active concentration for biofilm inhibition [5]: 7.1 µM
biofilm inhibition [5]: 74 ± 5%
IC50 [6]: 92 ± 8 nM

COCCn1[c](=[Ag][I])n(Cc2ccccn2)c2ccccc21 [4c, Iodido (1-(2-Methoxyethyl)-3-(pyridin-2-ylmethyl)-benzimidazol-2-ylidene) Silver(I)]
Molar conductivity ΛM ([1]; 1 h after dissolution): 7.18 S cm^2 mol^–^1
Molar conductivity ΛM ([1]; 24 h after dissolution): 8.83 S cm^2 mol^–^1
EC50 [2]: 14400 ± 2700 nM
MIC E. coli [2]: 21.2 ± 5.3 µM
MIC E. coli (value in brackets) [2]: 11 µg/mL
MIC K. pneumoniae [3]: 4.0 ± 0.0 µM
EC50 [3]: 2000 nM
MIC K. pneumoniae (value in brackets) [3]: 2 µg/mL
MIC A. baumannii [4]: 9.3 ± 3.5 µM
EC50 [4]: 1900 ± 100 nM
MIC A. baumannii (value in brackets) [4]: 5 µg/mL
smallest active concentration for biofilm inhibition [5]: 6.2 µM
biofilm inhibition [5]: 66 ± 6%
